The values that follow are results of earlier work, collected in patent US20220331268A1, “TREATMENT OF SKIN DISORDERS WITH TOPICAL COMBINATION COMPOSITIONS COMPRISING TAPINAROF AND AN ADDITIONAL AHR ACTIVATOR” (Sol-Gel Technologies Ltd., priority 2019, published 2022).

For data set [1] the following is noted: 1% tapinarof arm compared with 0.5% arm or vehicle.
For data set [2] the following is noted: psoriasis treatment, single drug; placebo 20.2%.
Data set [3] deals with interleukin-6 and interleukin-17A. To be noted: mouse models and in vitro human skin studies.
For data set [4] the following is noted: across all groups treated.

Consider `CC(C)c1c(O)cc(/C=C/c2ccccc2)cc1O` [Tapinarof, 3,5-dihydroxy-4-isopropyl-trans-stilbene], for which, in data set [1], the efficacy result is recorded as “higher efficacy” and the onset of action entry is recorded as “quicker onset of action”. For the same molecule, in data set [2], the adverse effects is listed as 44.5%. Also, in data set [3], the “effect on proinflammatory mediators including interleukin-6 and interleukin-17A” value is recorded as “inhibit”; the skin barrier function result is recorded as “enhance skin barrier function”. In data set [4], the “contact dermatitis (side-effect, among most common)” value is listed as above 5% and the “folliculitis (side-effect)” value is 9%.
Consider `C=C1/C(=C\C=C2/CCC[C@]3(C)[C@@H]([C@H](C)/C=C/[C@@H](O)C4CC4)CC[C@@H]23)C[C@@H](O)C[C@@H]1O` [calcipotriene], for which the adverse effects in data set [2] is given as 19.5%.
